Laboratory results published in paper PMC3256188, “Novel Nonphosphorylated Peptides with Conserved Sequences Selectively Bind to Grb7 SH2 Domain with Affinity Comparable to Its Phosphorylated Ligand” (PLoS ONE, 2012).
Non-standard residues stand in square brackets, D forms with d. No end group written: not given here. pY = N[C@@H](Cc1ccc(OP(=O)(O)O)cc1)C(=O)O

Experiments:
[1] = system: EYFP-tagged Grb7 SH2 domain; assay: Bioluminescence Resonance Energy Transfer (BRET) in HEK293T cells; format: cell-based; settings: 36 h after transfection, EYFP-Grb7 SH2 + mRLUC-tagged peptide, coelenterazine 5.9 µM, eighteen group ratios
Source text: For the BRET assay, the EYFP fragment was generated by PCR amplification. The ErbB3-mRLUC plasmid was constructed by the Beijing Sino Biological Inc. The SH2 domain of Grb7 was fused to the EYFP fragment, and the nonphosphorylated peptides 10 and 41 were fused to the mRLUC fragment. The Grb7 SH2 domain sequence was inserted at the C-terminus of the EYFP tag.
HEK293T cells at 70%–80% confluency were given fresh DMEM (high glucose) culture medium and transfected with plasmids using the calcium phosphate method. Samples were collected at 36 h after transfection.
In BRET, the Renilla luciferase (mRLUC) is fused to the candidate protein, and the green fluorescent protein mutant (EYFP) is fused to the target protein. Interactions between the two fused proteins bring the luciferase and the green fluorescent protein into close proximity, which promotes resonance energy transfer from mRLUC to EYFP [38]. Then EYFP is […] at 530 nm, and the emission is used to determine the binding between the two interacting proteins. In this study, HEK293T cells were collected at 36 h after transfection, 100 µL of mixed cell suspension was added to the u-bottom 96-well microtiter plates (Corning, USA) before measurement. The measurement of bioluminescence, with rasters of 460/40 nm and 518/20 nm, was performed on Synergy4 Multi-Mode Microplates Readers (BioTek, USA). The BRET reaction was initiated by 5.9 µM coelenterazine (Promega, USA). Data were analyzed by one-factor analysis of variance using SPSS 17.0.

Grb7 SH2 domain = assay: Yeast two-hybrid, Grb7 SH2 domain; format: cell-based; settings: yeast strain CG1945, GAL4 BD-SH2 bait, SD/-Trp-His-Leu selection and three independent improved LacZ tests
Source text: To see whether the conserved residues were required for association with the Grb7 SH2 domain, the peptide 10 was used as the mutation template to design three mutated peptides: the N-GIPT deletion mutation (10AM), the C-GIP deletion mutation (10BM) and the both N-GIPT and C-GIP deletion mutation (10CM).
The ABL_1 and Grb2 plasmids were gifts from Professor Ruibao Ren (Brandeis University, USA), and the Grb7 (BC006535) and Grb14 cDNA (BC053559) plasmids were from the Proteintech Group. The inserted sequences of the SH2 domains were as follows: Grb7: N-[…]-C; Grb2: N-[…]-C; ABL_1: N-[…]-C; and Grb14: N-[…]-C.
In the mutation assay, the control and mutation sequences were as follows:
The GAL4 BD-SH2 fusion bait plasmids were transformed into the yeast strain CG1945 using the lithium acetate protocol. The transformants were grown on SD/-Trp plates and spread on SD/-Trp-His plates for self-activation estimation. Those transformants without background growth or growth inhibited by 3-amino-1, 2, 4-triazole were selected for the subsequent screening. Approximately 3.01×10^6 clones of the random peptide library (Protocol No. PT303921, Clontech, USA), as AD baits, were effectively transformed into yeast strain CG 1945 containing BD bait plasmids and used to be screened according to the MATCHMAKER Two-Hybrid System protocol (Cat. No. 630489, Clontech, USA). Plasmids of potential positive transformants selected on plates with SD/-Trp-His-Leu medium in the primary screening were isolated and retransformed into the CG1945 cells containing the corresponding SH2 bait plasmids. The improved LacZ assay was then performed. Clones that were positive for all of the reporter assays and confirmed by three independent improved LacZ tests were selected for specific interactions.

[2] = molecular target: T1, GFP-Grb7 SH2 domain and 41-mRLUC-3×Flag complex (Homo sapiens, UniProt Q14451); assay: Competition immunoprecipitation, GFP-Grb7 SH2 domain and 41-mRLUC-3×Flag complex; format: binding
T1 construct: expressed in transfected cells; host or cells: HEK293T
Source text: To see whether the nonphosphorylated peptide could effectively compete with phosphorylated ligand for binding to the Grb7 SH2 domain, the phosphorylated ligand pY (1180) (DEEYEpY(1180)MNRRR), which was previously shown to interact with the Grb7 SH2 domain [6], and the nonphosphorylated 41-A ligand ([…]), which contains the first twenty-two amino acid-motif close to the N-terminus of peptide 41, were examine for their abilities to interfere with the GFP-Grb7 SH2 domain and 41-mRLUC-3×Flag complex using immunoprecipitation with anti-GFP antibody.
The phosphorylated ligand pY (1180) (DEEYEpY(1180)MNRRR) from the ErbB3 and the nonphosphorylated peptide 41-A ([…] RV) from nonphosphorylated peptide 41 were synthesized by the China Peptides Co., Ltd. The HPLC purification analysis and MS quality analysis reports were obtained.
HEK293T cells were washed 5 times with ice-cold PBS buffer and scraped off the plates into cell lysis buffer (1% Nonidet P-40, 0.02 M TRIS (pH 7.5), 0.15 M sodium chloride, 0.001 M EDTA, 0.5% sodium deoxycholate, 0.1% SDS and 0.001 M PMSF). Lysates were incubated on ice for 5 minutes, vortexed 2 times for 30 seconds each and centrifuged at 12,000 rpm for 15 minutes at 4°C. After centrifuging twice, the supernatant was incubated with anti-Flag antibody (1∶100, M20008M, Abmart, China) for 6–8 h at 4°C. Protein G agarose (40 µL) was added into 1 mL of the above mixture and coupled to the anti-Flag antibody for 3 h at 4°C. The immunoprecipitates were washed 2–3 times with PBS buffer (PH 7.4), and the sediments were diluted with 5×SDS electrophoresis buffer and heated at 97°C for 10 minutes. The proteins were separated by SDS-PAGE and transferred to PVDF membranes (IPVH00010, Millipore, USA). The membranes were incubated with anti-GFP antibody (1∶2000, P30010, Abmart, China) and goat anti-rabbit secondary antibody (1∶4000, M21002, Abmart, China) to identify target proteins. For the competition analyses, the immunoprecipitation complexes were mixed with anti-Flag antibody and different concentrations of the synthesized phosphorylated ligands or the nonphosphorylated ligands. The proteins were separated by SDS-PAGE, and the SH2 domain of Grb7 protein was analyzed using anti-GFP antibody. Western blot analysis was carried out using the Image J [37], the IC50 values were calculated by regression analyses using SPSS 17.0.

EGFP-Grb7 SH2 = molecular target: T2, EGFP-Grb7 SH2 (human); assay: co-IP; competition: synthetic peptide (0.0072, 0.036, 0.18 mM) added to the immunoprecipitation complexes of Grb7 SH2 domain and 41-mRLUC-3×Flag; Grb7 SH2 blotted with anti-GFP, bands scanned (ImageJ), IC50 by regression; settings: one partner purified
T2 construct: SH2 domain of Grb7, inserted at the C terminus of the EGFP tag; also called GFP-Grb7 SH2 domain; Grb7 SH2 domain; source: HEK293T, transfected (calcium phosphate), in lysate; not shown: EGFP, N-terminal, kept
T2 chain: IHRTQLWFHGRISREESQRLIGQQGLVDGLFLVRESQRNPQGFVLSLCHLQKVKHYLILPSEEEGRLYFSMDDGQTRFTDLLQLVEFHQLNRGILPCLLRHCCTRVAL

[3] = system: SK-BR-3 breast cancer cells; assay: MTS cell proliferation assay; format: cell-based; settings: beginning from 24 h (measured 18, 24, 36, 48, 60 h after transfection), absorbance 492 nm, vs mRLUC-3×Flag control, p<0.01
Procedure: For the cell proliferation assay, the anti-Grb7 antibody (N-20, Santa Cruz Biotechnology, USA) and the anti-Flag antibody (M20008M, Abmart, China) were used for the western blot, and MTS (Promega, USA) was used for the analysis of cell proliferation.
The MTS cell proliferation assay was performed to analyze the proliferation of SK-BR-3 breast cancer cells (Cell culture center of PUMC, China) according to the manufacturer's instructions (Promega, USA). SK-BR-3 cells at 70%–80% confluency were transiently transfected respectively with plasmids of 41-mRLUC-3×Flag or mRLUC-3×Flag and Mega Tran 1.0 (OriGene, USA). Beginning from 12 h after transfection, 400 µg/mL G418 (11811-023, Invitrogen, USA) was used to select for the transfected cells. The u-bottom 96-well microtiter plates (Corning, USA) were seeded with approximately 7.50×10^3 cells per well at 18 h after transfection. […] The absorbance at 492 nm of transfected cells and control DMEM medium was measured separately at 18 h, 24 h, 36 h, 48 h and 60 h after transfection on Synergy4 Multi-Mode Microplates Readers (BioTek, USA). The absorbance was adjusted by differences in the absorbance between cell culture medium and control medium without seeded cells. The data were analyzed by double-factor variance analysis using SPSS 17.0.

Molecule: ErbB3: mRLUC-tagged ErbB3, expressed from ErbB3-mRLUC plasmid
- BRET luminescence ratio of 530/480 nm [1]: strongest luminescence

Molecule: N-AGVESL YTPTTPTLLLTRPLPGIPRGLRGW-C [10AM, N-GIPT deletion mutation of peptide 10]
- recognition by / interaction with the Grb7 SH2 domain (Grb7 SH2 domain): None of the three mutations were recognized by the Grb7 SH2 domain

Molecule: N-AGVESLGIPNYTPTTPTLLLTRPLP RGLRGW-C (AGVESLGIPNYTPTTPTLLLTRPLPRGLRGW; left off: Gal4 activation domain (inferred: two-hybrid prey), end not stated, kept) [10BM, C-GIP deletion mutation of peptide 10]
- recognition by / interaction with the Grb7 SH2 domain (Grb7 SH2 domain): None of the three mutations were recognized by the Grb7 SH2 domain

Molecule: N-AGVESLYTPTTPTLLLTRPLPRGLRGW-C [peptide 10CM, both N-GIPT and C-GIP deletion mutation of peptide 10]
- recognition by / interaction with the Grb7 SH2 domain (Grb7 SH2 domain): None of the three mutations were recognized by the Grb7 SH2 domain
- BRET luminescence ratio of 530/480 nm [1]: non-interacting

Molecule: N-GMWEGLEGGGVAGVESLGIPNYTPTTPTLLLTRPLPGIPRGLRGWSLLRCCRLLCRNSYITAAPKHHHPLQTSPRGSPGLQEFDIKLIDTVDLEGGPGTQFAL-C [peptide 10, nonphosphorylated peptide identified from random peptide library; mutation template]
- BRET luminescence ratio of 530/480 nm [1]: significantly stronger
- BRET luminescence ratio of 530/480 nm ([1]; listed as Peptide 10): slightly stronger BRET signals compared to peptide 41

Molecule: VAVGIPTQPTTSSEPSPPSNPPWDPGRV [peptide 41-A, synthesized nonphosphorylated ligand containing the first twenty-two amino acid-motif of peptide 41]
- interference with binding of the Grb7 SH2 domain to peptide 41 ([2]; 0.0072 mM): did not significantly interfere
- interference with binding of the Grb7 SH2 domain to peptide 41 ([2]; 0.036 mM): did not significantly interfere
- interference with binding of the Grb7 SH2 domain to peptide 41 ([2]; 0.18 mM): nearly abolished
- disruptive effect on the Grb7 SH2 domain/peptide 41 interaction ([2]; Figure 3A, overall, concentration not given): even stronger than that of the pY (1180) ligand
- binding affinity to the Grb7 SH2 domain, comparison of 41-A and pY (1180) ([2]; in vitro competition, in words): at least comparable binding affinities to the Grb7 SH2 domain

B1: phosphorylated ligand pY (1180) from ErbB3 (peptide)
peptide: DEEYE[pY]MNRRR
notes: ErbB3 stretch around Y1180; source: synthetic peptide (China Peptides Co., Ltd.)
- IC50 (EGFP-Grb7 SH2): 31.8 µM

B2: nonphosphorylated 41-A ligand (peptide)
peptide: VAVGIPTQPTTSSEPSPPSNPPWDPGRV
notes: stretch of peptide 41 with its first 22-residue motif; also called peptide 41-A; source: synthetic peptide (China Peptides Co., Ltd.)
- IC50 (EGFP-Grb7 SH2): 18.8 µM

B3: 41-mRLUC-3×Flag: fusion protein of peptide 41 with mRLUC and 3×Flag, expressed from transfected plasmid (protein)
chain: VGTWTTRGPWCPCVAVGIPTQPTTSSEPSPPSNPPWDPGRVLLGRIVWPGLLALGIPTHHQNDTYNSPHAHPNRDP
modifications: left off: mRLUC, C-terminal, kept | 3×Flag, C-terminal, kept
notes: fusion protein of peptide 41 with mRLUC and 3×Flag, expressed from transfected plasmid
- proliferation of transfected SK-BR-3 cells (MTS absorbance) [3]: significantly slower than that of the mRLUC-3×Flag control group
